# Source: PubChem BioAssay (NCI)
#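 Cultured in 96-well plates, cells were exposed to test compound for 48 hours across five concentrations. Abbreviation: GI50, concentration required for 50% inhibition of growth. TGI denotes the concentration required for complete inhibition of growth.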
# Assays:
# Assay in all cases: inhibition of tumour cell growth, NCI panel, 48 h
# 786-0 renal = test system: 786-0 renal
# A498 renal = test system: A498 renal
# ACHN renal = test system: ACHN renal
# HOP-92 NSCLC = test system: HOP-92 NSCLC
# MALME-3M melanoma = test system: MALME-3M melanoma
# OVCAR-3 ovarian = test system: OVCAR-3 ovarian
# OVCAR-4 ovarian = test system: OVCAR-4 ovarian
# PC-3 prostate = test system: PC-3 prostate
# RXF 393 renal = test system: RXF 393 renal
# UACC-62 melanoma = test system: UACC-62 melanoma
SMILES,GI50 (786-0 renal),TGI (786-0 renal),GI50 (A498 renal),TGI (A498 renal),GI50 (ACHN renal),TGI (ACHN renal),GI50 (HOP-92 NSCLC),TGI (HOP-92 NSCLC),GI50 (MALME-3M melanoma),TGI (MALME-3M melanoma),GI50 (OVCAR-3 ovarian),TGI (OVCAR-3 ovarian),GI50 (OVCAR-4 ovarian),TGI (OVCAR-4 ovarian),GI50 (PC-3 prostate),TGI (PC-3 prostate),GI50 (RXF 393 renal),TGI (RXF 393 renal),GI50 (UACC-62 melanoma),TGI (UACC-62 melanoma)
CCN1CCN(Cc2ccc(Nc3ncc(F)c(-c4cc(F)c5nc(C)n(C(C)C)c5c4)n3)nc2)CC1,4.74 µM,13.2 µM,1.05 µM,50 µM,0.172 µM,9.56 µM,0.0337 µM,50 µM,0.0557 µM,10.5 µM,6.34 µM,13.5 µM,6.49 µM,16.2 µM,0.0527 µM,11.1 µM,0.389 µM,8.34 µM,6.39 µM,14.2 µM
NS(=O)(=O)c1ccc(N=Nc2c(O)[nH]c3ccc(C(=O)NCCCn4ccnc4)cc23)cc1,> 25 µM,> 25 µM,> 25 µM,> 25 µM,> 25 µM,> 25 µM,> 25 µM,> 25 µM,> 25 µM,> 25 µM,> 25 µM,> 25 µM,> 25 µM,> 25 µM,> 25 µM,> 25 µM,> 25 µM,> 25 µM,> 25 µM,> 25 µM
Cc1nc2ccc(-n3ncc(C(=O)c4cc5ccccc5[nH]4)c3N)cc2[nH]1,9.44 µM,69.4 µM,0.496 µM,54.3 µM,5.73 µM,> 100 µM,21.9 µM,98.9 µM,13.9 µM,83.1 µM,11.2 µM,> 100 µM,16 µM,> 100 µM,9.65 µM,> 100 µM,2.47 µM,15.7 µM,4.24 µM,24.9 µM
CS(=O)(=O)Nc1cc(-c2ccc3ncc(C#N)c(Nc4ccc(F)c(Cl)c4)c3c2)cnc1Cl,0.256 µM,–,0.0398 µM,0.302 µM,0.304 µM,> 100 µM,0.0333 µM,0.61 µM,0.0354 µM,0.278 µM,0.0657 µM,0.909 µM,0.243 µM,–,0.197 µM,10.6 µM,0.125 µM,0.6 µM,0.073 µM,0.596 µM
COc1ccc(-c2nc3sccn3c2-c2ccnc(NCCNS(=O)(=O)c3ccc(C(F)(F)F)cc3)n2)cc1,0.641 µM,11.3 µM,0.31 µM,6.86 µM,2.58 µM,> 100 µM,0.153 µM,2.51 µM,2.35 µM,5.22 µM,2.03 µM,> 100 µM,1.99 µM,39.6 µM,0.303 µM,3.34 µM,2.66 µM,63.2 µM,0.485 µM,3.4 µM
CCOC(=O)c1c(C)n([O-])c2cc(F)c(F)cc2[n+]1=O,6.73 µM,19.8 µM,15.9 µM,30 µM,1.73 µM,3.23 µM,1.1 µM,3.08 µM,0.717 µM,1.83 µM,1.1 µM,2.42 µM,1.72 µM,3.92 µM,1.65 µM,3.59 µM,1.8 µM,5.76 µM,1.47 µM,2.91 µM
CCOC(=O)c1c(-c2ccccc2)n2c(=O)cc(C)c3c(O)c(O)cc1c32,11.7 µM,53.7 µM,13 µM,37.6 µM,5.94 µM,43.1 µM,10.5 µM,42.8 µM,13.7 µM,33.6 µM,2.38 µM,17 µM,2.46 µM,11.4 µM,6.94 µM,26 µM,11.9 µM,30.9 µM,7.94 µM,20.9 µM
Nc1nc2ccc(CNc3ccc(C(=O)NC(CC(=O)O)C(=O)O)cc3)cc2c(=O)[nH]1 (stereo unspecified),2.18 µM,> 100 µM,> 38.9 µM,> 100 µM,3.6 µM,> 100 µM,> 51 µM,> 100 µM,> 33.3 µM,> 100 µM,16.2 µM,> 100 µM,> 100 µM,> 100 µM,0.655 µM,> 100 µM,> 34.7 µM,> 100 µM,5.89 µM,> 100 µM
CCc1ccc(Oc2c(-c3ccc(OCCc4cccc(C(F)(F)F)c4)cc3O)n[nH]c2C(F)(F)F)cc1,6.38 µM,12.9 µM,5.93 µM,12.8 µM,2.18 µM,7.66 µM,1.36 µM,5.01 µM,5.42 µM,11.8 µM,1.52 µM,4.66 µM,2.22 µM,8.05 µM,3.7 µM,10.5 µM,4.94 µM,11.4 µM,3.44 µM,10.4 µM
O=S(=O)(NCCNc1nccc(-c2c(-c3ccc(F)cc3)nc3sccn23)n1)c1ccc(O)cc1,4.26 µM,39.7 µM,8.8 µM,23.2 µM,2.03 µM,45.6 µM,1.31 µM,9.07 µM,3.92 µM,21.5 µM,–,–,3.52 µM,21.6 µM,4.51 µM,37.6 µM,4.27 µM,24.8 µM,2.35 µM,18.8 µM
Cc1ccc2ncnc(N(C)C3CCCCC3)c2c1,32.3 µM,> 100 µM,77.1 µM,> 100 µM,29 µM,> 100 µM,14.6 µM,42.7 µM,56 µM,> 100 µM,23.3 µM,54.5 µM,76.5 µM,> 100 µM,27.1 µM,87.4 µM,3.84 µM,17.9 µM,31.9 µM,> 100 µM
Nc1c(C(=O)Nc2cccc(Cl)c2)sc2nc3c(cc12)C(O)CCC3 (stereo unspecified),0.66 µM,20.4 µM,0.182 µM,13.6 µM,1.04 µM,23.4 µM,0.824 µM,38.2 µM,0.485 µM,33.3 µM,0.311 µM,1.22 µM,5.51 µM,40.2 µM,0.416 µM,25.2 µM,0.396 µM,2.87 µM,0.463 µM,58.8 µM
